Assay results as given in patent US8809376B2, “Indanyloxydihydrobenzofuranylacetic acids” (Boehringer Ingelheim International GmbH, priority 2012, dated 2014).

The molecules below were run against human GPR40 receptor (Homo sapiens, UniProt O14842) (assay: Assay I: IP1 accumulation (IPOne assay system) in 1321N1 cells stably expressing human GPR40 receptor). Settings: stimulated 1 hour at 37° C., 10% CO2, LiCl 50 mM.
Sequence of human GPR40 receptor (O14842 whole entry): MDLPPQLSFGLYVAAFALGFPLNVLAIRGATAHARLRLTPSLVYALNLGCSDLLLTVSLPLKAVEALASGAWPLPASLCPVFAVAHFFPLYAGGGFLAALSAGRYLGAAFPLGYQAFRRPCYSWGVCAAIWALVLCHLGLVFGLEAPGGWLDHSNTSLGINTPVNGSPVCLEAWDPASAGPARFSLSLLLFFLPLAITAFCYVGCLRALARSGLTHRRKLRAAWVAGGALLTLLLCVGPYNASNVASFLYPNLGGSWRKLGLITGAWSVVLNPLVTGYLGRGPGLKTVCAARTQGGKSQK
Type: cell-based
Method: IP1 accumulation measurements using the IPOne assay system—1321N1 cells stably expressing human GPR40 receptor (Euroscreen, Belgium) are seeded 24 h before the assay in black clear-bottom collagen-coated 384-well plates in culture medium containing 10% FCS, 1% Na-Pyruvate and 400 μg/mL G418. IP1 is assayed according to the Manufacturer's description (Cisbio Bioassays, France). In brief, the assay is started by substitution of the culture medium by stimulation buffer (Hepes 10 mM, CaCl2 1 mM, MgCl2 0.5 mM, KCl 4.2 mM, NaCl 146 mM and glucose 5.5 mM, pH 7.4) without LiCl. Cells are stimulated for 1 hour at 37° C., 10% CO2 by addition of the compounds that are diluted in stimulation buffer containing LiCl yielding a final LiCl concentration of 50 mM. Assays are stopped by adding HTRF-conjugates (IP1-d2 and Anti-IP1 cryptate Tb) and lysis buffer, provided by the manufacturer. After an incubation time of 1 hour at room temperature plates are measured using an EnVision™, Perkin Elmer. The obtained fluorescence ratios at 665/615 nM are then used to calculate the pEC50 values using GraphPad Prism 5 (Graphpad Software Inc, USA) by interpolation using an IP1 reference curve and subsequent sigmoidal curve fitting allowing for a variable hill slope.
N#Cc1ccc2c(c1Cc1ccccc1)CC[C@H]2Oc1ccc2c(c1)OC[C@H]2CC(=O)O [Example 1, {(S)-6-[(R)-4-Benzyl-5-cyano-indan-1-yloxy]-2,3-dihydro-benzofuran-3-yl}-acetic acid] was tested, and the EC50 was 5 nM.
With N#Cc1ccc2c(c1Cc1ccc(Cl)nc1)CC[C@H]2Oc1ccc2c(c1)OC[C@H]2CC(=O)O [Example 2, {(S)-6-[(R)-4-(6-Chloro-pyridin-3-ylmethyl)-5-cyano-indan-1-yloxy]-2,3-dihydro-benzofuran-3-yl}-acetic acid] the EC50 was 36 nM.
COc1cccc(Cc2c(C#N)ccc3c2CC[C@H]3Oc2ccc3c(c2)OC[C@H]3CC(=O)O)c1 [Example 3, {(S)-6-[(R)-5-Cyano-4-(3-methoxy-benzyl)-indan-1-yloxy]-2,3-dihydro-benzofuran-3-yl}-acetic acid] showed an EC50 of 24 nM.
With COc1ccc(Cc2c(C#N)ccc3c2CC[C@H]3Oc2ccc3c(c2)OC[C@H]3CC(=O)O)cc1 [Example 4, {(S)-6-[(R)-5-Cyano-4-(4-methoxy-benzyl)-indan-1-yloxy]-2,3-dihydro-benzofuran-3-yl}-acetic acid] the EC50 was 5 nM.
Cc1cccc(C)c1Cc1c(C#N)ccc2c1CC[C@H]2Oc1ccc2c(c1)OC[C@H]2CC(=O)O [Example 5, {(S)-6-[(R)-5-Cyano-4-(2,6-dimethyl-benzyl)-indan-1-yloxy]-2,3-dihydro-benzofuran-3-yl}-acetic acid] was tested, and the EC50 was 6 nM.
Cc1ccccc1Cc1c(C#N)ccc2c1CC[C@H]2Oc1ccc2c(c1)OC[C@H]2CC(=O)O [Example 6, {(S)-6-[(R)-5-Cyano-4-(2-methyl-benzyl)-indan-1-yloxy]-2,3-dihydro-benzofuran-3-yl}-acetic acid] gave an EC50 of 8 nM.
Molecule CSc1ccc(Cc2c(C#N)ccc3c2CC[C@H]3Oc2ccc3c(c2)OC[C@H]3CC(=O)O)cc1 [Example 7, {(S)-6-[(R)-5-Cyano-4-(4-methylsulfanyl-benzyl)-indan-1-yloxy]-2,3-dihydro-benzofuran-3-yl}-acetic acid] has an EC50 of 18 nM.
CS(=O)(=O)c1ccc(Cc2c(C#N)ccc3c2CC[C@H]3Oc2ccc3c(c2)OC[C@H]3CC(=O)O)cc1 [Example 8, {(S)-6-[(R)-5-Cyano-4-(4-methylsulfonyl-benzyl)-indan-1-yloxy]-2,3-dihydro-benzofuran-3-yl}-acetic acid] was tested, and the EC50 was 325 nM.
In the case of N#Cc1cccc(Cc2c(C#N)ccc3c2CC[C@H]3Oc2ccc3c(c2)OC[C@H]3CC(=O)O)c1 [Example 9, {(S)-6-[(R)-5-Cyano-4-(3-cyano-benzyl)-indan-1-yloxy]-2,3-dihydro-benzofuran-3-yl}-acetic acid], the EC50 is reported as 29 nM.
O=C(O)C[C@@H]1COc2cc(O[C@@H]3CCc4c3ccc(C(F)(F)F)c4Cc3ccccc3)ccc21 [Example 10, {(S)-6-[(R)-4-Benzyl-5-trifluoromethyl-indan-1-yloxy]-2,3-dihydro-benzofuran-3-yl}-acetic acid] showed an EC50 of 3 nM.
N#Cc1ccc2c(c1Cc1ccc(O)cc1)CC[C@H]2Oc1ccc2c(c1)OC[C@H]2CC(=O)O [Example 11, {(S)-6-[(R)-5-Cyano-4-(4-hydroxy-benzyl)-indan-1-yloxy]-2,3-dihydro-benzofuran-3-yl}-acetic acid] gave an EC50 of 12 nM.
Work on C[S+]([O-])c1ccc(Cc2c(C#N)ccc3c2CC[C@H]3Oc2ccc3c(c2)OC[C@H]3CC(=O)O)cc1 (stereo partly drawn) [Example 12, {(S)-6-[(R)-5-Cyano-4-(4-methylsulfinyl-benzyl)-indan-1-yloxy]-2,3-dihydro-benzofuran-3-yl}-acetic acid] yielded an EC50 of 479 nM.
In the case of COc1ccc(Cc2ccc(F)c3c2CC[C@H]3Oc2ccc3c(c2)OC[C@H]3CC(=O)O)cc1 [Example 13, {(S)-6-[(R)-7-Fluoro-4-(4-methoxybenzyl)-indan-1-yloxy]-2,3-dihydrobenzofuran-3-yl}acetic acid], the EC50 is reported as 5 nM.
In the case of COc1cccc(Cc2ccc(F)c3c2CC[C@H]3Oc2ccc3c(c2)OC[C@H]3CC(=O)O)c1 [Example 14, {(S)-6-[(R)-7-Fluoro-4-(3-methoxybenzyl)-indan-1-yloxy]-2,3-dihydrobenzofuran-3-yl}-acetic acid], the EC50 is reported as 4 nM.
In the case of O=C(O)C[C@@H]1COc2cc(O[C@@H]3CCc4c(Cc5ccc(Cl)nc5)ccc(F)c43)ccc21 [Example 15], the EC50 is reported as 35 nM.
Work on O=C(O)C[C@@H]1COc2cc(O[C@@H]3CCc4c(Cc5ccccc5)ccc(F)c43)ccc21 [Example 16, {(S)-6-[(R)-4-Benzyl-7-fluoro-indan-1-yloxy]-2,3-dihydrobenzofuran-3-yl}-acetic acid] yielded an EC50 of 5 nM.
